Experimental data as given in patent US12573042B2, “Differentiation device, differentiation method for depression symptoms, determination method for level of depression symptoms, stratification method for depression patients, determination method for effects of treatment of depression symptoms, and brain activity training device” (ADVANCED TELECOMMUNICATIONS RESEARCH INSTITUTE INTERNATIONAL, priority 2017, dated 2026).

Key:
Assay type in all cases: in vivo, human
[1] = test system: melancholic MDD patients; assay: Change of functional connectivities FC #1 and FC #2 (rs-fMRI) through antidepressant treatment
Text: Next, contribution to ΔWLS was considered for each functional connectivity in order to consider an influence of SSRI (escitalopram) on each of the 12 pairs of functional connectivities.
Specifically, in preliminary and subsequent analysis of administration, the following numerical expression was used to calculate a contribution score of each functional connectivity.
That is, si represents a difference in average connectivity strength between the healthy control group and the MDD group weighted by the weight of the classifier. […] Further, in Expression 2, FCi^MDD represents reduction (a negative sign through subtraction). […] In other words, the fact that ci becomes negative means that FCi after treatment becomes closer to the corresponding FC of a healthy individual. In contrast, the fact that ci becomes positive means that FCi after treatment becomes closer to the MDD. The numbers of members in the healthy control group and in the MDD group are different from each other, and thus the significant difference between ci and si for each FCi is evaluated by a Welch's t-test. The Welch's t-test is calculated in accordance with the following numerical expression.

[2] = test system: melancholic MDD patients; assay: WLS score (related weighted sum of 12 functional connectivities, rs-fMRI) before and after antidepressant administration; conditions: 24 remitted melancholic MDD patients, administered for 6 weeks to 8 weeks, FIG. 31c
Method: In this manner, a regression expression for classifying a melancholic MDD patient and a healthy individual, namely, a classifier, was created. Further, a related weighted sum (the associated weighted linear sum: WLS) was calculated as an indicator for determining whether each subject has the melancholic MDD or is healthy.
Next, whether an effect of escitalopram, which is a selective serotonin reuptake inhibitor (SSRI), can be evaluated by the WLS score was considered. A smoothed histogram of the WLS score of each of 24 remitted melancholic MDD patients shown in Table 1a, to whom escitalopram was administered for 6 weeks to 8 weeks, is shown in FIG. 31c.

[3] = test system: healthy subjects; assay: Change of FC #1 and FC #2 (rs-fMRI) on administration of SSRI to healthy subjects; conditions: 19 healthy subjects, single administration, p=0.033; no difference before (p=0.18)
Text: In a test by two-way analysis of variance, the functional connectivities of FC #1 and FC #2 have a significant temporal interaction through treatment (FC #number x time, F (1,23)=6.70, p=0.016), and a significant difference was not observed for each primary effect. […] In all the diagrams of FIG. 32 and FIG. 33, transition toward the positive direction indicates transition toward the direction of the melancholic MDD, whereas transition toward the negative direction indicates transition toward the direction of the healthy individual. This is because the sign of the weight of the melancholic MDD classifier was multiplied by the FC or the difference in FC. […] Eleven melancholic MDD patients (serotonin-norepinephrine reuptake inhibitor (SNRI) duloxetine was administered for 6 weeks to 8 weeks) gathered in Chiba were considered (FIG. 32c). […] Next, the changes of FC #1 and FC #2 at the time of administration of SSRI to healthy subjects (19 persons) were observed. […] There was no difference before treatment (p=0.18), and a significant relation was […] observed (FIG. 32d).

With CNCC[C@H](Oc1cccc2ccccc12)c1cccs1 [duloxetine] the “difference between FC #1 and FC #2 after treatment” value ([1]; 11 melancholic MDD patients of Chiba, administered for 6 weeks to 8 weeks, paired t-test p=0.10, before treatment n.s. p=0.77) was “difference in trend level”.
In the case of CN(C)CCC[C@@]1(c2ccc(F)cc2)OCc2cc(C#N)ccc21 [escitalopram], the “difference between FC #1 and FC #2 after treatment” value ([1]; Hiroshima cohort, corresponding t-test p=0.002, no difference before treatment (p=0.96)) is reported as “significant difference was observed after treatment”, the “transition of FC #1 after treatment” value ([1]; Hiroshima cohort, positive direction = direction of melancholic MDD) is reported as “transitioned toward the positive direction” and the “distribution of the WLS score after administration” value [2] is reported as “shifted toward the healthy control group”.
In the case of Fc1ccc([C@@H]2CCNC[C@H]2COc2ccc3c(c2)OCO3)cc1 [paroxetine], the “difference between FC #1 and FC #2 after administration” value [3] is reported as “significant difference between FC #1 and FC #2 was observed”.
